Data as given in paper PMC7444556, “MrpH, a new class of metal-binding adhesin, requires zinc to mediate biofilm formation” (PLoS Pathogens, 2020).
Counter-ions that a name gives are not always drawn. Like-named read-outs stand apart in the source and are kept apart here.

Experiments:
Type in all cases: binding
MrpH159 (MrpHntd) [1] = target: T1, MrpH159 (MrpHntd) (Proteus mirabilis, UniProt B4EUK6); settings: 10 mM ligand, 10 uM protein, 24 mM NaCl, 6 mM HEPES pH 7.5, reference storage buffer 65.2±0.30 °C
T1 construct: gene mrpH; pEXP5-CT/TOPO (His-tag, Ni-NTA, no cleavage told); expressed in E. coli BL21-AI
T1 sequence (B4EUK6 entry or part of it): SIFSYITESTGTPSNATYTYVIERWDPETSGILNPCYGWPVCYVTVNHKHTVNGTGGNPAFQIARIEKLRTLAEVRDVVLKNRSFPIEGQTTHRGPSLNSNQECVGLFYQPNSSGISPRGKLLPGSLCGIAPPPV
Excerpt: thermal shift assay (SYPRO Orange) on MrpH159 (MrpHntd)

MrpH159 (MrpHntd) [2] = target: T1, MrpH159 (MrpHntd); assay: X-ray crystal structure, […] Å; settings: side chain carboxyl ligates Zn2+; ligand not added, picked up during expression, assigned from electron density
MrpH153 (MrpHntd) = target: T2, MrpH153 (MrpHntd) (Proteus mirabilis, UniProt B4EUK6); assay: thermal shift assay; settings: 10 mM ammonium tartrate pH 7.0, 100 mM NaCl; reference 66.7 ± 0.6 °C in 10 mM HEPES pH 7.5
T2 construct: gene mrpH; C-terminal His-tag kept; expressed in E. coli
T2 sequence (B4EUK6 entry or part of it): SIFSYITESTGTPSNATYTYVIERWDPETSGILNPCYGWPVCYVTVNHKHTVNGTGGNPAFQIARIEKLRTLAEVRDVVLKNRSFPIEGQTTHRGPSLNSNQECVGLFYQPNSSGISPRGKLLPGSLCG

| SMILES | <Tm> (°C)^a (MrpH159 (MrpHntd) [1]) [°C] | <Tm> (°C)^a (MrpH159 (MrpHntd) [1]; citrate pH not stated) [°C] | X-ray crystal structure, 1.75 Å (MrpH159 (MrpHntd) [2]) | Tm (MrpH153 (MrpHntd)) [°C] |
| --- | --- | --- | --- | --- |
| CC(=O)O [Sodium acetate] | 76.3±0.56 | – | – | – |
| O=C(O)CC(O)(CC(=O)O)C(=O)O [Sodium citrate] | – | 73.3±0.64 | – | – |
| O=CO [Sodium formate] | 68.4±0.75 | – | – | – |
| N[C@@H](CCC(=O)O)C(=O)O [glutamic acid] | 73.1±0.21 | – | we have assigned glutamic acid as the bound ligand in the MrpH159 structure | – |
| O=C(O)C(O)C(O)C(=O)O (stereo not shown) [tartrate] | 80.1±0.70 | – | – | 78.5 ± 0.1 |
